Experimental data taken from article PMC6048268, “Resveratrol Inhibits Key Steps of Steroid Metabolism in a Human Estrogen-Receptor Positive Breast Cancer Model: Impact on Cellular Proliferation” (Frontiers in Pharmacology, 2018).
Where two headings read alike, the source gives them in different places.

Legend:
[1] = system: SULT1A1 mRNA; assay: Real-time PCR, SULT1A1 mRNA expression in MCF-7 cells; type: cell-based, human; details: 10 μM RES; for down-regulation of SULT1A1 mRNA: non-significant
Description: MCF-7 breast cancer cells were seeded in 6-well plates at a density of 1.0 × 10^6 cells per well and allowed to attach overnight. […] Expression profiling of genes of interest was performed as detailed previously ([Mechtcheriakova et al., 2007]; [Meshcheryakova et al., 2016]). Upon treatment, total RNA was isolated using peqGOLD TriFAST^TM reagent (VWR, Vienna, Austria) according to the manufacturer’s protocol. 1 μg RNA was used for cDNA generation using the High Capacity cDNA Reverse Transcription Kit (Thermo Fisher Scientific, Inc.) according to the instructions of the manufacturer. Real-time PCR analysis was performed in the 96-well plate format on a QuantStudio 12K Flex Real-Time PCR System (Thermo Fisher Scientific, Inc.). SULT1A1 and SULT2A1 were detected using the corresponding TaqMan Assays (Thermo Fisher Scientific, Inc.). […] HKGs primers were self-designed using the Primer Express 3.0 software (Thermo Fisher Scientific, Inc.) and validated using the Human Total RNA Master Panel (TaKaRa Bio, Inc., Saint-Germain-en-Laye, France), as described before ([Mechtcheriakova et al., 2007], [2011]); Primers: UBC forward: […]; UBC reverse: […]; GAPDH forward: […]; GAPDH reverse: […]; ACTB forward: […]; ACTB reverse: […]. For relative quantification, data were analyzed by applying the ΔΔCT method. Expression levels of target genes were normalized to the average of the HKGs and shown relative to unstimulated cells (0 h time-point).

[2] = system: MCF-7 cells; assay: Cell proliferation, Casy cell counting, MCF-7; type: cell-based, human
Description: MDA-MB-231 and MCF-7 breast cancer cells were purchased from the American Type Culture Collection (ATCC; Manassas, VA, United States) and routinely cultivated at 37°C (95% humidity and 5% CO2) in phenolred-free Dulbecco’s modified Eagle medium F-12 (DMEM/F-12), fortified with 1% PenStrep®-solution and 10% fetal bovine serum (Invitrogen; Thermo Fisher Scientific, Inc., Waltham, MA, United States). All experiments were performed during the exponential growth phase of both cell lines. For the experiments, cells were seeded in 6-well-plates at a density of 1.0 × 10^6 cells per well and allowed to attach for 24 h.
Prior to cell counting with a Casy® TT Cell Counter (OLS OMNI Life Science, Bremen, Germany), the supernatant medium was removed and cells were detached using 400 μl TrypLe® solution (Invitrogen). All experiments were performed in triplicate, and the data were reported as the means ± standard deviation of all values.

[3] = system: serum E2 concentrations; parameters: method as in Chow et al., 2014; details: post-menopausal women, 1 g RES once a day for 12 weeks, non-significant; ref Chow et al., 2014; cited from earlier work
[4] = system: steroid metabolism in MCF-7 cells; assay: Inhibition of steroid metabolism by RES in MCF-7 cells (LC–HRMS); details: for inhibition at 10 µM: Homo sapiens, MCF7, 48 h; for Ki: MCF-7, Dixon plot
Description: (§1) Briefly, cartridges were preconditioned with 2 × 1.0 ml acetonitrile and 3 × 1.0 ml ammonium acetate buffer (10 mM, pH = 5.0), and the samples were loaded onto the columns. After washing with 1 × 1.0 ml ammonium acetate buffer (10 mM, pH = 5.0) and 2 × 1.0 ml acetonitrile/ammonium acetate buffer (10 mM, pH 5.0) 10:90 (v/v), the analytes were eluted using 2 × 650 μl acetonitrile/ammonium acetate buffer (10 mM, pH = 5.0) 95:5 (v/v) and evaporated until dry. Subsequently, samples were reconstituted in 270 μl acetonitrile/ammonium acetate buffer (10 mM, pH = 5.0) 25:75 (v/v) and stored at -80°C until further LC–HRMS analysis.
After media collection, cell monolayers were washed five times with 2.0 ml DPBS, detached using 400 μl TrypLE® solution (37°C, 5 min), mixed with 600 μl DPBS and transferred into sample vials. Aliquots of these suspensions (100 μl each) were diluted and counted using the Casy® TT Cell Counter to determine the exact number of cells per sample well. The remaining cell suspensions (900 μl each) were gently centrifuged (1000 rpm, 8 min), and the supernatants were discarded. The cell pellets were subsequently resuspended in 100 μl aqueous ammonium acetate buffer (10 mM, pH = 5.0) and lysed by five freeze-thaw-cycles in liquid nitrogen (3 min each), followed by thawing at ambient temperature. Ammonium acetate buffer (1000 μl) was added, and the suspensions were centrifuged (14000 rpm, 5 min). Subsequently, the supernatants were concentrated using the same SPE protocol as described above. All processed samples were then stored at -80°C until further LC–HRMS analysis. For each condition, three biologically independent experiments were performed; the reported values represent the overall means ± SD of all values.
LC was performed with an UltiMate 3000 RSLC-series system coupled to a maXis HD ESI-Qq-TOF mass spectrometer (Bruker Corporation, Bremen, Germany). A Phenomenex Luna® 3 μm C18(2) 100 Å LC column (250 mm × 4.6 mm I.D.; Phenomenex, Inc., Torrance, CA, United States), preceded by a Hypersil® BDS-C18 guard column (5 μm, 10 mm × 4.6 mm I.D.; Thermo Fisher Scientific, Inc.) was used for the separation of the analytes at a flow rate of 1.0 ml/min and a temperature of 43°C. […] The ESI ion source settings were as follows: capillary voltage: -4.5 kV; dry gas flow rate: 8.0 l/min N2; nebulizer: 1.0 bar N2; and dry temperature: 200°C. The ion transfer parameters were set to 400 Vpp funnel RF and 300 Vpp multipole RF, the quadrupole ion energy was 8.0 eV, and the collision cell parameters were as follows: collision RF, 1100 Vpp; collision energy, 10.0 eV; transfer time, 38 μs; and pre-pulse storage, 18 μs. In the range of m/z 150–500, full-scan mass spectra were recorded.
(§2) The modes of inhibition were subsequently determined from Lineweaver–Burk plots, and the corresponding Ki values were calculated from Dixon plots using GraphPad Prism 6.0.

[5] = system: steroid metabolism in MDA-MB-231 cells; assay: Inhibition of steroid metabolism by RES in MDA-MB-231 cells (LC–HRMS); type: cell-based, human; details: MDA-MB-231, 100 μM RES, 100 nM DHEA or E1, 48 h
Description: as §1
After media collection, cell monolayers were washed five times with 2.0 ml DPBS, detached using 400 μl TrypLE® solution (37°C, 5 min), mixed with 600 μl DPBS and transferred into sample vials. Aliquots of these suspensions (100 μl each) were diluted and counted using the Casy® TT Cell Counter to determine the exact number of cells per sample well. […]
LC was performed with an UltiMate 3000 RSLC-series system coupled to a maXis HD ESI-Qq-TOF mass spectrometer (Bruker Corporation, Bremen, Germany). […] In the range of m/z 150–500, full-scan mass spectra were recorded.
as §2

[6] = MCF-7, 100 μM RES, 100 nM DHEA, 48 h
[7] = MCF-7, 100 μM RES, 100 nM E1, 48 h

Oc1ccc(/C=C/c2cc(O)cc(O)c2)cc1 [RES, 3,5,4′-trihydroxy-trans-stilbene]
down-regulation of SULT1A1 mRNA ([1]; 24 h): 23.6 ± 13.0%
down-regulation of SULT1A1 mRNA ([1]; 48 h): 30.4 ± 11.0%
effect on transcription of SULT1A1 ([1]; up to 4 h): did not affect
increase in cell counts on co-incubation ([2]; 5 μM RES + 100 nM E1, 48 h, vs control without E1): twofold increase in cell counts
cell number ([2]; 5 μM RES, 48 h): 2.92 ± 0.16 × 10^6 cells
effect on cellular proliferation ([2]; 10 μM RES, 48 h): no effect
cell number ([2]; 100 μM RES, 48 h): 1.08 ± 0.11 × 10^6 cells
Emax at 5 µM ([2]; Homo sapiens, MCF7, 48 h, read-out: stimulation of cellular growth (maximal effect)): 21.2 ± 3.3%
IC50 ([2]; Homo sapiens, MCF7, MCF-7, 48 h, steroid-deprived, read-out: IC50 (inhibition of cell growth)): 37.4 ± 14.5 µM
increase in serum E2 concentrations [3]: 22.4%
inhibition at 10 µM ([4]; read-out: inhibition of E1 sulfation): 91.6 ± 1.1%
inhibition at 10 µM ([4]; read-out: inhibition of E2 sulfation): 90 ± 1%
increase in AD concentrations [4, 6]: 141.0%
increase in T levels [4, 6]: 305.9%
reduction of mean formation of DHEA-S [4, 6]: 87.7%
increase in unconjugated E2 concentrations [4, 7]: 101.6%
reduction of mean formation of E1-S [4, 7]: 99.1%
reduction of mean formation of E2-G [4, 7]: 89.7%
reduction of mean formation of E2-S [4, 7]: 98.8%
mode of inhibition of conjugate formation ([4]; MCF-7, Lineweaver–Burk and Dixon plots, all conjugates): non-competitive
Ki ([4]; read-out: Ki, inhibition of DHEA-S formation, DHEA precursor): 13.2 ± 0.2 µM
Ki ([4]; read-out: Ki, inhibition of E1-S formation, E1 precursor): 0.94 ± 0.03 µM
Ki ([4]; read-out: Ki, inhibition of E2-G formation, E1 precursor): 7.92 ± 0.24 µM
Ki ([4]; read-out: Ki, inhibition of E2-S formation, E1 precursor): 0.73 ± 0.07 µM
effect on formation of DHEA-S, E1-S, E2-S and E2-G [5]: did not affect
effect on formation of unconjugated AD, T and E2 [5]: no significant influence
